Test results from the NIST ThermoML archive (doi:10.1016/j.tca.2016.02.005).

Experiments:
[1] = refractive index (Na D-line) (dimensionless); xn = mol fraction of the nth substance listed; conditions: 101.3 kPa, Liquid, Standard Abbe refractometry
[2] = xn = mol fraction of the nth substance listed; conditions: 101.3 kPa, Liquid; for speed of sound: Frequency=3 MHz, Sing-around technique in a fixed-path interferometer; for mass density: Vibrating tube method

COCCO [2-methoxyethan-1-ol] + CCn1cc[n+](C)c1.F[B-](F)(F)F
Conditions | mass density, [2] [kg/m3] | refractive index, [1] | speed of sound, [2] [m/s]
298.15 K, x2 = 0 | 960.9 | 1.4003 | 1345.8
298.15 K, x2 = 0.0515 | 993.6 | 1.4031 | 1379.1
298.15 K, x2 = 0.102 | 1022 | 1.4052 | 1408.5
298.15 K, x2 = 0.1502 | 1046.9 | 1.4067 | 1433.7
298.15 K, x2 = 0.21 | 1075 | 1.408 | 1461.4
298.15 K, x2 = 0.3051 | 1113.8 | 1.4094 | 1498.3
298.15 K, x2 = 0.3976 | 1145.5 | 1.4101 | 1526.8
298.15 K, x2 = 0.5036 | 1175.9 | 1.4107 | 1552.1
298.15 K, x2 = 0.6063 | 1200.7 | 1.4111 | 1570.9
298.15 K, x2 = 0.701 | 1220.6 | 1.4115 | 1584.8
298.15 K, x2 = 0.8024 | 1240.1 | 1.4118 | 1597.7
298.15 K, x2 = 0.8521 | 1249.4 | 1.4117 | 1603.7
298.15 K, x2 = 0.9 | 1258.3 | 1.4115 | 1609.6
298.15 K, x2 = 0.9502 | 1267.8 | 1.4111 | 1616
308.15 K, x2 = 0 | 951.7 | 1.3961 | 1311.3
308.15 K, x2 = 0.0515 | 984.6 | 1.3991 | 1345.9
308.15 K, x2 = 0.102 | 1013.2 | 1.4014 | 1376.4
308.15 K, x2 = 0.1502 | 1038.3 | 1.4031 | 1402.7
308.15 K, x2 = 0.21 | 1066.5 | 1.4046 | 1431.6
308.15 K, x2 = 0.3051 | 1105.5 | 1.4061 | 1470
308.15 K, x2 = 0.3976 | 1137.4 | 1.407 | 1499.7
308.15 K, x2 = 0.5036 | 1168 | 1.4077 | 1526.1
308.15 K, x2 = 0.6063 | 1192.9 | 1.4082 | 1545.8
308.15 K, x2 = 0.701 | 1212.9 | 1.4087 | 1560.3
308.15 K, x2 = 0.8024 | 1232.4 | 1.4091 | 1573.6
308.15 K, x2 = 0.8521 | 1241.7 | 1.4091 | 1579.8
308.15 K, x2 = 0.9 | 1250.6 | 1.4089 | 1585.9
308.15 K, x2 = 0.9502 | 1260.2 | 1.4085 | 1592.5
318.15 K, x2 = 0 | 942.7 | 1.3917 | 1276.4
318.15 K, x2 = 0.0515 | 975.9 | 1.3951 | 1312.3
318.15 K, x2 = 0.102 | 1004.7 | 1.3977 | 1344.1
318.15 K, x2 = 0.1502 | 1030 | 1.3996 | 1371.4
318.15 K, x2 = 0.21 | 1058.5 | 1.4013 | 1401.5
318.15 K, x2 = 0.3051 | 1097.9 | 1.403 | 1441.5
318.15 K, x2 = 0.3976 | 1130.1 | 1.4039 | 1472.5
318.15 K, x2 = 0.5036 | 1160.8 | 1.4047 | 1500.1
318.15 K, x2 = 0.6063 | 1185.8 | 1.4053 | 1520.6
318.15 K, x2 = 0.701 | 1205.8 | 1.406 | 1535.7
318.15 K, x2 = 0.8024 | 1225.2 | 1.4064 | 1549.6
318.15 K, x2 = 0.8521 | 1234.4 | 1.4065 | 1556.1
318.15 K, x2 = 0.9 | 1243.2 | 1.4064 | 1562.4
318.15 K, x2 = 0.9502 | 1252.5 | 1.4059 | 1569.2
328.15 K, x2 = 0 | 933.4 | 1.3876 | 1241.9
328.15 K, x2 = 0.0515 | 966.8 | 1.3914 | 1279.2
328.15 K, x2 = 0.102 | 995.8 | 1.3943 | 1312.1
328.15 K, x2 = 0.1502 | 1021.3 | 1.3965 | 1340.5
328.15 K, x2 = 0.21 | 1050 | 1.3983 | 1371.7
328.15 K, x2 = 0.3051 | 1089.6 | 1.4002 | 1413.4
328.15 K, x2 = 0.3976 | 1122 | 1.4011 | 1445.7
328.15 K, x2 = 0.5036 | 1152.9 | 1.4018 | 1474.5
328.15 K, x2 = 0.6063 | 1178 | 1.4024 | 1495.9
328.15 K, x2 = 0.701 | 1198.1 | 1.403 | 1511.7
328.15 K, x2 = 0.8024 | 1217.6 | 1.4035 | 1526.2
328.15 K, x2 = 0.8521 | 1226.8 | 1.4036 | 1532.9
328.15 K, x2 = 0.9 | 1235.6 | 1.4035 | 1539.4
328.15 K, x2 = 0.9502 | 1245 | 1.4031 | 1546.4
